One molecule from patent US20100203110A1, “Therapeutics for Cancer Using 3-Bromopyruvate and Other Selective Inhibitors of ATP Production” (The Johns Hopkins University, priority 2006, published 2010) can be followed below.

Series [1] has as its target T1, Type II hexokinase (Homo sapiens, UniProt P52789).
T1 construct: The cells were harvested, total protein extracted, purified and used to run a western blot; endogenous in cells; host or cells: Hep G2
T1 sequence (P52789 1-917): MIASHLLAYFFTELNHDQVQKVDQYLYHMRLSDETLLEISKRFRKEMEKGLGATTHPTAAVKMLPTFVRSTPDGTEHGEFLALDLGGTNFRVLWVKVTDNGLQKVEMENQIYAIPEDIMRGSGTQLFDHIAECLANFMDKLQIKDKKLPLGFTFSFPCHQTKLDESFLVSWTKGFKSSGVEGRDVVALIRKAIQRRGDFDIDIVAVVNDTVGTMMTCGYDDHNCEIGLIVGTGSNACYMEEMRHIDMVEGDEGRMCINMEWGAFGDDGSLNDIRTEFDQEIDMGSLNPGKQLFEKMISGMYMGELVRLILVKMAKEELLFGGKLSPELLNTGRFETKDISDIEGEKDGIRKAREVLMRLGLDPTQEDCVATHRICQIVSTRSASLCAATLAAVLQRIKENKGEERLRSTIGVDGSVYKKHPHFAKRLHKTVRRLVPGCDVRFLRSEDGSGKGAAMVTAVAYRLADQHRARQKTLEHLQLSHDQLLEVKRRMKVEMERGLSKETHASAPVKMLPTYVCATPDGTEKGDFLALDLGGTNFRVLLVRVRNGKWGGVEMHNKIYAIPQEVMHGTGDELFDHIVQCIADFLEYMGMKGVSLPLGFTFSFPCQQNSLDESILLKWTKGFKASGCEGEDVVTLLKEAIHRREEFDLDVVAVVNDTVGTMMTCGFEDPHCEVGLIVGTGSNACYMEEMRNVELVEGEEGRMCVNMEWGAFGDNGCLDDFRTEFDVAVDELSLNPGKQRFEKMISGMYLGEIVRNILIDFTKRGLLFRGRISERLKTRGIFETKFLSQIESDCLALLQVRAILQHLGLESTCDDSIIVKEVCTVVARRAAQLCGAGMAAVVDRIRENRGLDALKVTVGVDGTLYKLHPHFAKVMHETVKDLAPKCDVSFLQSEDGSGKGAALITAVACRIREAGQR
The experiment in a line: Binding of 14C-labeled 3-bromopyruvate in Hep G2 cells (western blot / autoradiograph). The following applies: 1 hour in HBSS. The protocol: In a further study, the human hepatocellular carcinoma cell line (HCC), Hep G2, was treated with ^14C-labeled 3-bromopyruvate for a period of 1 hour in HBSS. The cells were harvested, total protein extracted, purified and used to run a western blot. They were then transferred onto a membrane, probed with a Type II hexokinase specific antibody and the antibody binding signal was captured on film through Chemiluminescent detection system (western blotting). The corresponding gel was also separately exposed to an autoradiograph.
(Immunoblotting shows a protein as a band on a membrane.)

Series [2] can be described thus: Acute toxicity study, single IV dose in rabbits. It is filed as in vivo, rabbit. The method, then:
In addition, an acute toxicity study was performed to determine the effects of 3-bromopyruvate administered IV. Based on the data acquired in rats, rabbits (2 animals per group followed for 1 week) were given 25 ml of 15, 20, and 25 mM 3-bromopyruvate as a single IV dose (i.e., using dose identified for rats).

The nature of series [3]: Intravenous dose-escalation study in normal Lewis rats. The following applies: for therapeutic dose, intravenous: Lewis rats. It is filed as in vivo, rat. The method, then: In order to determine the therapeutic dose of 3-bromopyruvate for intravenous (N) administration, a dose-escalation study was conducted in normal Lewis rats (non-tumor bearing). Each group of animals (6 rats per group) received incremental doses of 3-bromopyruvate intravenously (2.5 mL of 5, 10, 15, 20, 25 and 50 mM 3-bromopyruvate).

Series [4] relates to HepG2. The experiment in a line: Cell viability, HepG2. Format: cell-based, human. The following applies: 1 mM for 3 hour. The protocol:
(§1) Caspase-3 activity and reduced cell viability was also measured in cell lines (HepG2, THLE-2, and VX2 cell lines) following 3-bromopyruvate treatment (1 mM for 3 hour) (FIG. 6A). Caspase-3 activity increased in each cell line following treatment and cell viability decreased following treatment. An increase in caspase-3 activity indicated the mechanism of cell death is apoptotic. FIGS. 6 B and C show cell viability is reduced in each cell line with increasing 3-bromopyruvate concentration after 1 and 3 hours of treatment.

Series [5] deals with VX2 tumor. The experiment in a line: Longitudinal survival studies in the VX2 rabbit model. It is filed as in vivo. The text has this: In a longitudinal study to investigate the effect of 3-bromopyruvate treatment in the VX2 rabbit model, it was observed that although the treated rabbits lived longer than the untreated ones (statistically significant), the treated rabbits were not cured of their tumors and died within weeks of treatment of massive tumor growth. The extremely aggressive nature of the VX2 tumor was not stopped by the treatment and the tumor re-grew despite the high initial percentage of cancer cell death. Further studies were thus needed to determine the optimal dose and method of infusion of 3-bromopyruvate to attain significant long-term survival, complete eradication of the tumor.
VX2 tumors are extremely aggressive and are rendered more aggressive and difficult to treat by the passage of this tumor from generation to generation (>100) in the thigh of a rabbit making each generation more virulent than the last. […] As described herein continuous intraarterial infusion of 1.7 mM 3-bromopyruvate is an effective and potent therapy for treating liver cancer.

The subject of series [6] is THLE-2. The experiment in a line: Caspase-3 activity, THLE-2. Format: cell-based. Conditions: 1 mM for 3 hour. The method, then: as §1

Turning to `O=C(O)C(=O)CBr` [3-bromopyruvate], in series [1], the “binding to Type II hexokinase” value was “directly binds”. Further, in series [2] (20 mM single IV dose), the organ toxicity result was “no evidence of any organ toxicity”. Also, the “therapeutic dose, intravenous” value in series [2] (25 ml single IV dose, 1 week) came out at 20 mM; in series [2] (single IV dose) it was 16.8 mg/kg; in series [3] (2.5 mL IV, observed 3 weeks), 20 mM; in series [3] (IV), 16.8 mg/kg. Also, the “organs by histopathologic analysis” value in series [3] (50 mM IV) was “normal”. For the same molecule, in series [3] (all doses lower than 20 mM IV), the tolerability entry is “well-tolerated and caused no deaths”. The “clinical distress (appetite, urination, body weight)” value in series [3] (doses lower than 20 mM IV) is “no evidence of clinical distress”. Further, the “major organs at necropsy” value in series [3] (doses lower than 20 mM IV) is given as “without any damage”. Moreover, the mortality result in series [3] (highest dose of 50 mM IV) is reported as “all the animals in the group died”. For the same molecule, the time to death in series [3] (highest dose of 50 mM IV) is at most 15 min. The cell viability result in series [4] is reported as “decreased”. The “survival versus untreated rabbits” value in series [5] (VX2 rabbit model, not cured, tumor re-grew) is reported as “lived longer”. Also, in series [5] (animals with 100% tumor kill), the “delay of tumor progression versus saline (IA) controls” value was determined as 75%. Moreover, the Caspase-3 activity result in series [6] was “increased”.
